Assay results from the supplement of paper PMC9663587.

Assays:
Assay in all cases: GRmax, 72 h; higher = less effect;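 note: breast cell lines in 384-well plates, nine doses across a 10^4 range, Dye Drop imaging of viable cells vs DMSO and time-zero plates, GR 0 means no net growth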
BT20 = system: BT20
BT549 = system: BT549
EFM19 = system: EFM19
HCC1937 = system: HCC1937
MCF12A = system: MCF12A
MDAMB175VII = system: MDAMB175VII
PDX1258 = system: PDX1258
PDXHCI002 = system: PDXHCI002
SKBR3 = system: SKBR3
SUM1315 = system: SUM1315
UACC812 = system: UACC812
UACC893 = system: UACC893

Row | SMILES | GRmax, 72 h (BT20) [GR] | GRmax, 72 h (BT549) [GR] | GRmax, 72 h (EFM19) [GR] | GRmax, 72 h (HCC1937) [GR] | GRmax, 72 h (MCF12A) [GR] | GRmax, 72 h (MDAMB175VII) [GR] | GRmax, 72 h (PDX1258) [GR] | GRmax, 72 h (PDXHCI002) [GR] | GRmax, 72 h (SKBR3) [GR] | GRmax, 72 h (SUM1315) [GR] | GRmax, 72 h (UACC812) [GR] | GRmax, 72 h (UACC893) [GR]
1 | Cc1cc(C(C)Nc2ccccc2)c2nc(N3CCOCC3)cc(=O)n2c1 (configuration not stated) [TGX221] (max 10 µM) | 1.02 | 0.81 | 0.843 | 0.838 | 1.05 | 0.886 | 0.997 | 0.855 | 0.75 | 0.705 | 0.0432 | 0.939
2 | CN(C)C/C=C/C(=O)Nc1ccc(C(=O)Nc2cccc(Nc3ncc(Cl)c(-c4c[nH]c5ccccc45)n3)c2)cc1 [THZ1] (max 1 µM) | -0.385 | -0.312 | -0.293 | -0.386 | -0.312 | -0.438 | -0.716 | -0.193 | -0.789 | -0.906 | -0.348 | -0.525
3 | CN(C)C/C=C/C(=O)Nc1ccc(C(=O)N2CCC[C@@H](Nc3ncc(Cl)c(-c4c[nH]c5ccccc45)n3)C2)cc1 [THZ531] (max 1 µM) | 0.637 | -0.349 | -0.557 | -0.282 | -0.0737 | -0.662 | -0.575 | -0.198 | -0.619 | -0.602 | 0.556 | -0.417
4 | CN(C)C/C=C/C(=O)Nc1ccc(C(=O)Nc2cccc(Nc3cc(-c4c[nH]c5ccccc45)ncn3)c2)cc1 [THZ-P1-2] (max 10 µM) | -0.623 | 0.175 | 0.124 | -0.777 | 0.364 | -0.765 | -0.891 | 0.721 | -0.777 | -0.299 | -0.371 | -0.761
5 | Cc1nc(-c2cn3c(n2)-c2ccc(-c4cnn(C(C)(C)C(N)=O)c4)cc2OCC3)n(C(C)C)n1 [Taselisib/GDC0032] (max 10 µM) | -0.375 | 0.095 | -0.143 | 0.121 | 0.074 | -0.937 | 0.106 | -0.137 | -0.207 | 0.0942 | -0.636 | -0.898
6 | O=C1NC(=O)[C@@H](c2cn3c4c(cccc24)CCC3)[C@@H]1c1c[nH]c2ccccc12 [Tivantinib/ARQ197] (max 10 µM) | -0.488 | -0.265 | -0.592 | -0.0621 | -0.0779 | -0.296 | -0.209 | -0.487 | -0.352 | -0.43 | -0.84 | -0.248
7 | Nc1ccc(-c2ccc3ncc4ccc(=O)n(-c5cccc(C(F)(F)F)c5)c4c3c2)cn1 [Torin2] (max 1 µM) | -0.289 | -0.0209 | -0.0622 | 0.0726 | 0.0112 | -0.945 | -0.207 | -0.102 | -0.342 | -0.0903 | -0.817 | -0.828
8 | CC[C@@H]1C(=O)N(C)c2cnc(Nc3ccc(C(=O)N[C@H]4CC[C@H](N5CCN(CC6CC6)CC5)CC4)cc3OC)nc2N1C(C)C [Volasertib/BI6727] (max 1 µM) | -0.534 | -0.229 | -0.577 | -0.148 | -0.0126 | -0.115 | -0.232 | -0.589 | -0.349 | -0.388 | -0.496 | -0.424
9 | O=C(CCCCCCC(=O)Nc1ccccc1)NO [Vorinostat] (max 10 µM) | -0.113 | 0.113 | -0.248 | -0.0085 | 0.318 | -0.867 | -0.0232 | -0.583 | -0.632 | -0.0668 | -0.487 | -0.337
10 | C=CC(=O)Nc1ccc(C(=O)Nc2[nH]nc3c2CN(C(=O)N[C@H](CN(C)C)c2ccccc2)C3(C)C)cc1 [YKL-5-124] (max 10 µM) | -0.153 | -0.58 | 0.0431 | -0.205 | 0.0267 | -0.771 | -0.587 | -0.129 | -0.602 | -0.406 | -0.403 | -0.626
11 | CN1CCN(C(=O)c2ccc3cc(CCNc4ncnc5ccc(C#N)cc45)ccc3c2)CC1 [senexin b] (max 10 µM) | 0.175 | 0.675 | 0.629 | 0.394 | 0.776 | 0.205 | 0.603 | 1.06 | 0.797 | 0.656 | 0.248 | 0.71
